24 compounds from PubChem BioAssay (NCI) can be followed below.

Experiment in all cases: DTP human tumour cell line panel, 48 h
For assay [1], the system named is MALME-3M melanoma.
In assay [2] the test system is MDA-N.
For assay [3], the system named is A498 renal.
For assay [4], the system named is NCI-H226 lung.
Assay [5] has as its system HT29 colon.
Assay [6] deals with UACC-62 melanoma.
In assay [7] the test system is SK-MEL-5 melanoma.
Assay [8] deals with NCI/ADR-RES ovarian.
The test system of assay [9] is NCI-H460 lung.
In assay [10] the test system is HOP-92 NSCLC.

For orientation: TGI means the concentration giving total growth inhibition. A high value points to lower sensitivity of the cells. One may read the GI50 as the concentration that inhibits growth by half.

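Protocol summary: plate cells (96-well), add compound at 5 concentrations, incubate 48 h, interpolate endpoints linearly. GI50 = concentration required for 50% inhibition of growth. Definition used: TGI = concentration required for complete inhibition of growth.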

`COC(=O)/C=C/[C@H]1[C@H](C)N1S(=O)(=O)c1ccc(C)cc1` (some centres undefined): the concentration for total growth inhibition (TGI) in assay [1], in assay [2], in [3], in assay [4], in [5] and in assay [6] was above 100 µM throughout. Moreover, the TGI in assay [7], in assay [8] and in [9] was above 100 µM each time.
As to `FC(F)(F)c1ccc(N=NN2CCCC2)cc1`, the TGI in assay [1], in assay [2], in assay [3], in assay [4], in assay [10] and in assay [5] was above 100 µM throughout. The total growth inhibition concentration (TGI) in assay [6], in assay [7] and in assay [9] was above 100 µM each time.
`O=CC1C(=O)Nc2nc3ccccc3n2C1c1ccccc1` (centres undefined): the TGI in assay [1] amounted to 53.7 µM; in assay [3] it was 28.8 µM; in assay [4], 36.9 µM; in assay [10], 31.3 µM; in assay [5] it was 41.2 µM; in [6] it was 31.9 µM. Further, the TGI in assay [7] is 28.7 µM; in [8] it was above 100 µM; in assay [9] it was 82.8 µM.
Regarding `COc1cc2oc(=O)cc(C)c2c(OC)c1OC`, the TGI was above 100 µM in assay [1]; above 100 µM in [2]; 96.8 µM in assay [3]; above 100 µM in [4]; above 100 µM in assay [5]; above 100 µM in assay [6]. In addition, the TGI in assay [7] and in assay [8] was above 100 µM each time.
Consider `O=C(CN1CCOCC1)c1ccc2c(c1)oc(=O)n2CCN1CCCCC1`, for which the TGI in assay [1], in assay [2], in assay [3], in [4], in [5] and in assay [6] was above 100 µM each time. Also, the TGI in assay [7], in assay [8] and in assay [9] was above 100 µM each time.
On to `COc1cc(C2C(Cl)C(=O)N2NC(=O)c2ccccc2O)cc(OC)c1OC` (centres undefined), for which the TGI in assay [4] is above 10 µM; in assay [10], above 10 µM; in assay [5], 9.06 µM; in assay [6], above 10 µM; in [7] it was above 10 µM; in assay [9], above 10 µM.
As to `CCOC1=NC(C(F)(F)F)(C(F)(F)F)N=C(/N=C(/N)N(C)C(C(C)C)P(=O)(OC(C)C)OC(C)C)O1` (centres undefined), the TGI in [1], in [2], in assay [3], in assay [4], in [5] and in assay [6] was above 100 µM in each case. The TGI in assay [7], in assay [8] and in assay [9] was above 100 µM throughout.
On to `COc1ccc(OC/C(N=Cc2cccnc2)=N/NC(=O)c2ccncc2)cc1`, for which the TGI was above 100 µM in assay [1]; 45.6 µM in assay [2]; above 100 µM in assay [3]; above 100 µM in [4]; above 100 µM in assay [5]; above 100 µM in [6]. Moreover, the TGI in [8] and in assay [9] was above 100 µM in each case.
Regarding `O=C1N(c2ccccc2)N=C2c3ccncc3C3=NN(c4ccccc4)C(=O)C123` (centres undefined), the TGI in assay [1] was above 100 µM; in assay [3], above 100 µM; in assay [4], above 100 µM; in assay [10], above 100 µM; in assay [5], above 100 µM; in assay [6], above 57.1 µM. The total growth inhibition concentration (TGI) was above 47 µM in [7], above 100 µM in assay [8] and above 100 µM in [9].
As for `ClC1(Cl)C2CCOC21n1cnc2ccccc21` (centres undefined), the TGI in assay [1], in [2], in [4], in assay [5], in [6] and in assay [7] was above 100 µM each time. The compound also displayed a TGI in assay [8] above 100 µM.
In the case of `CN1CCN(C(=S)N(C(=O)c2ccc(Cl)cc2)C2CCCCC2)CC1`, the TGI in assay [1], in [2], in [4], in assay [10], in assay [5] and in [6] was above 100 µM each time. In addition, the total growth inhibition concentration (TGI) in [7] and in assay [9] was above 100 µM each time.
As to `C/C(=N\Nc1nc2ccccc2[nH]1)c1ccc2ccccc2n1`, the TGI in [1] turned out to be 7.85 µM; in [2] it was 14.8 µM; in assay [6] it was 9.25 µM; in assay [7] it was 4.5 µM; in assay [8] it was 7.63 µM; in assay [9] it was 10.4 µM.
With `CNC(=S)c1nnsc1N`, the TGI in assay [1], in [2], in [3], in [4], in [6] and in [7] was above 100 µM each time. Moreover, the TGI is above 100 µM in assay [8] and 41.5 µM in [9].
On to `COc1ccc(-c2cc(-c3ccncc3)nc(N)c2-c2ccc(F)cc2)cc1`, for which the TGI in assay [1], in assay [3], in [4], in assay [10], in [5] and in assay [6] was above 100 µM each time. In addition, the results for the TGI in assay [7], in assay [8] and in assay [9] were above 100 µM, above 100 µM and 57.6 µM, respectively.
`O=C1C=C(NCCc2ccc(O)cc2)C(=O)C=C1NCCc1ccc(O)cc1`: the TGI in assay [1], in assay [3], in assay [4], in [10], in assay [5] and in [6] was above 100 µM each time. The TGI in [7], in [8] and in [9] was above 100 µM in each case.
With `CN=C(NC#N)NCc1ccccc1`, the TGI in assay [1], in [3], in [4], in assay [10], in assay [5] and in [7] was above 100 µM throughout. The same compound yielded a TGI in assay [9] above 100 µM.
Regarding `COc1cc(/C=C2\CCCC3=C2N=C2SC=NN2C3c2cc(OC)c(OC)c(OC)c2)cc(OC)c1OC` (centres undefined), the GI50 in assay [1] is 2990 nM; in assay [3], 1480 nM; in assay [10], 2.98 µM; in [5] it was 3.07 µM; in assay [6], 1680 nM; in assay [8], 3450 nM. Besides, the TGI in [1] was 7.09 µM; in [3] it was 3.89 µM; in assay [10], above 100 µM; in [5], 7.41 µM; in assay [6] it was 3.66 µM; in [8], above 100 µM.
As to `CC(C)N=C(NC#N)NS(=O)(=O)c1cnccc1NC1CCCCCCC1`, the TGI in assay [1], in [2], in [3], in [4], in [5] and in assay [6] was above 100 µM each time. Moreover, the TGI in [7] and in assay [8] was above 100 µM in each case.
As for `O=[N+]([O-])c1ccc(N/N=C\c2ccc(O)cc2O)nc1`, the GI50 was 2610 nM in [1]; above 100000 nM in assay [3]; 3.39 µM in assay [4]; 5.54 µM in [10]; 5.32 µM in [5]; 498 nM in [8]. In addition, the GI50 in assay [9] is 797 nM. In addition, the TGI was above 100 µM in [1]; above 100 µM in assay [3]; above 100 µM in assay [4]; above 100 µM in [10]; above 100 µM in assay [5]; 31.2 µM in assay [8]. In assay [9], this compound returned a TGI above 100 µM.
For `CSc1nnc2n1-c1ccccc1SCC2`, the TGI in [1], in assay [3], in assay [4], in assay [10], in [5] and in [6] was above 100 µM in each case. Also, the TGI in assay [9] is above 100 µM.
In the case of `CCN(CC)C(=O)N1CN(c2ccccc2)C2(CCN(CCCC3(c4ccc(F)cc4)OCCO3)CC2)C1=O`, the TGI in [1] amounted to 36.5 µM; in [2], 35.7 µM; in assay [4] it was 53.5 µM; in [6], 34.9 µM; in assay [7], 26.4 µM; in assay [8], 46.4 µM.
Consider `O=c1ccc2c(Cl)sc(Cl)c2[nH]1`, for which the TGI in assay [1], in assay [2], in assay [5], in [6], in assay [8] and in assay [9] was above 100 µM each time.
`COC1=C2C[C@](OC)(C#CC=CC#CC2O)CC1(C)C` (some centres undefined): the TGI in [1], in [2], in assay [4], in assay [5], in assay [6] and in assay [7] was above 100 µM throughout. The TGI in assay [8] and in assay [9] was above 100 µM each time.
Consider `COC(=O)Cc1c(-c2c(CC(=O)OC)c3ccccc3n2C2OC(COC3OC(COC(C)=O)C(OC(C)=O)C(OC(C)=O)C3OC(C)=O)C(O)C(O)C2O)[nH]c2ccccc12` (centres undefined), for which the TGI in assay [2], in assay [3], in assay [4], in [10], in [5] and in assay [6] was above 100 µM each time. Further, the TGI in assay [7] and in assay [9] was above 100 µM in each case.
